Values of other authors, collected in paper PMC3346673 (Toxicological and environmental chemistry, 2012).

Legend:
[1] = temporarily ref Risher & Amier, 2005; cited from earlier work
[2] = administered by sc injection; cited from earlier work

Compound: O=S(=O)(O)CC(S)CS (stereo not drawn) [DMPS, dimercaptopropanesulfonate]
- reduction of blood mercury levels [1]: about 20%

Compound: O=C(O)C(S)C(S)C(=O)O (stereo not drawn) [DMSA, dimercaptosuccinic acid]
- reduction of blood mercury levels [1]: about 20%

Compound: [Cl][Hg][Cl] [HgCl2, mercury chloride]
- predicted LD50 [2]: 14 mg HgCl2 kg^−1
